Key:
[1] = CBC analysis of piglets given NR solution; type: in vivo, piglets (Yorkshire/Hampshire crossbred)
Source text: Sixteen (n=16) Yorkshire/Hampshire crossbred piglets were obtained from the University of California, Davis Swine Teaching and Research Center and received on lactation day (“LD”) 14. Prior to arrive, the piglets were processed by the suppler between 1-3 days of age by administration of iron and an antibiotic ([…] for swine) as is common practice at the University of California, Davis Swine Facility. It is not common practice at the University of California, Davis Swine Facility to give a second dose of iron and antibiotics unless it becomes necessary. The piglets were from two litters (litters 15 and 17), weaned at 17 days of age, and randomly placed into one of two groups balanced for litter, sex, and weight. The animals were not acclimated to the facility at arrival and were subsequently acclimated to the test diet administration system. The piglets were weaned into a temperature-controlled room (approximately 27-29° C.) that contained 10 adjacent pens. The piglets were group-housed in the nursery room at the Swine Facility, which is an enclosed room with access restricted to trained personnel. The two groups were separated by one pen containing piglets of similar age. Each morning enough nicotinamide riboside (NR, I) in water solution was prepared for that day's dose administration according to the dose preparation protocol. At least 5 mL of prepared dose was reserved and immediately frozen after preparation each day for analysis of nicotinamide riboside (NR, I) for the purpose of confirming stability of the dose material. The doses were stored at refrigeration temperature while not in use. Nicotinamide riboside (NR, I) was dosed once per day in the morning and at the same time each day. Piglets in the control group received the same volume of plain water and were dosed on the same schedule. Starting on Day 1, animals in the nicotinamide riboside (NR, I) group were dosed once daily (in the morning) with 277 mg nicotinamide riboside (NR, I) per pig resuspended in water for seven days. After one week, animals were dosed once daily with 342 mg nicotinamide riboside (NR, I) per pig delivered in 2.5 mL for seven days. For Days 1 and 2, the nicotinamide riboside (NR, I) solution was prepared by resuspending 2770 mg nicotinamide riboside (NR, I) in 50 mL water, and 5 mL of this solution was delivered to each pig by squirting it into the back of the mouth using a 10 mL syringe with a piece of tubing attached to the end. To reduce the volume to more efficiently deliver the nicotinamide riboside (NR, I) solution, the 2770 mg was resuspended in 25 mL water and 2.5 mL of the solution was squirted into the back of the mouth of each pig using a 3 mL syringe for Days 3-7. For Days 8-14, 3420 mg nicotinamide riboside (NR, I) was resuspended in 25 mL water and 2.5 mL of this solution was delivered to each pig. Each day prior to dosing, 2.5 mL of the nicotinamide riboside (NR, I) (5 mL on Days 1 and 2) were placed into a separate tube and frozen. Blood was collected from each pig via jugular venipuncture on Days 1, 8, and 14. In each instance, blood was collected prior to dosing with nicotinamide riboside (NR, I). On Day 1, the sow was removed from the piglets for approximately three hours prior to sample collection. On Days 8 and 14, feed was removed from the animals' pens 12 hours prior to sample collection. Blood was collected into purple-top vacutainers for CBC analysis and into red-top vacutainers for blood chemistry analysis. CBC analysis was performed at IDEXX Laboratories in West Sacramento, California using the Sysmex XT-iV Vet Hematology Autoanalyzer (Sysmex America Inc., Lincolnshire, Illinois). Red-top tubes were spun to collect serum and the serum frozen. Frozen aliquots (500 μL) were submitted to the University of California, Davis Veterinary medicine Teaching Hospital Clinical Diagnostic Laboratory for Blood Chemistry Analysis using the Cobas 6000 C501 Clinical Chemistry Analyzer (Roche Diagnostics, Indianapolis, IN). […]

[2] = mice on a high-fat diet supplemented with NR; cited from earlier work
[3] = Wk 1, 277 mg/pig once daily oral
[4] = Wk 2, 342 mg/pig once daily oral Days 8-14

NC(=O)c1ccc[n+]([C@@H]2O[C@H](CO)[C@@H](O)[C@H]2O)c1 [NR, Nicotinamide riboside]
Basophils, % ([1]; Baseline, before dosing): 0.57% | Basophils, count ([1]; Baseline, before dosing): 60 cells/μL | Eosinophils, % ([1]; Baseline, before dosing): 1.11% | Eosinophils, count ([1]; Baseline, before dosing): 108 cells/μL | HCT ([1]; Baseline, before dosing): 29.9% | HGB ([1]; Baseline, before dosing): 10.4 g/dL | Lymphocytes, % ([1]; Baseline, before dosing): 65.8% | Lymphocytes, count ([1]; Baseline, before dosing): 6.48 ×10^3 cells/μL | MCH ([1]; Baseline, before dosing): 16.0 pg | MCHC ([1]; Baseline, before dosing): 34.3 g/dL | MCV ([1]; Baseline, before dosing): 46.2 fL | Monocytes, % ([1]; Baseline, before dosing): 6.17% | Monocytes, count ([1]; Baseline, before dosing): 596 cells/μL | Neutrophil/Lymphocyte ([1]; Baseline, before dosing): 0.41 | Neutrophils, % ([1]; Baseline, before dosing): 26.3% | Neutrophils, count ([1]; Baseline, before dosing): 2.47 ×10^3 cells/μL | RBC ([1]; Baseline, before dosing): 6.45 M/μL | WBC ([1]; Baseline, before dosing): 9.7 ×10^3 cells/μL | Basophils, % [1, 3]: 0.49% | Basophils, count [1, 3]: 68 cells/μL | Eosinophils, % [1, 3]: 1.52% | Eosinophils, count [1, 3]: 213 cells/μL | HCT [1, 3]: 27.3% | HGB [1, 3]: 9.4 g/dL | Lymphocytes, % [1, 3]: 51.0% | Lymphocytes, count [1, 3]: 6.34 ×10^3 cells/μL | MCH [1, 3]: 15.4 pg | MCHC [1, 3]: 34.7 g/dL | MCV [1, 3]: 44.7 fL | Monocytes, % [1, 3]: 6.01% | Monocytes, count [1, 3]: 803 cells/μL | Neutrophil/Lymphocyte [1, 3]: 0.85 | Neutrophils, % [1, 3]: 40.9% | Neutrophils, count [1, 3]: 5.41 ×10^3 cells/μL | RBC [1, 3]: 6.06 M/μL | WBC [1, 3]: 12.8 ×10^3 cells/μL | Basophils, % [1, 4]: 0.30% | Basophils, count [1, 4]: 61 cells/μL | Eosinophils, % [1, 4]: 1.07% | Eosinophils, count [1, 4]: 179 cells/μL | HCT [1, 4]: 26% | HGB [1, 4]: 9.4 g/dL | Lymphocytes, % [1, 4]: 54.9% | Lymphocytes, count [1, 4]: 10.31 ×10^3 cells/μL | MCH [1, 4]: 15.5 pg | MCHC [1, 4]: 35.2 g/dL | MCV [1, 4]: 44.2 fL | Monocytes, % [1, 4]: 6.80% | Monocytes, count [1, 4]: 1336 cells/μL | Neutrophil/Lymphocyte [1, 4]: 0.73 | Neutrophils, % [1, 4]: 36.9% | Neutrophils, count [1, 4]: 7.59 ×10^3 cells/μL | RBC [1, 4]: 6.11 M/μL | WBC [1, 4]: 19.5 ×10^3 cells/μL | CBC and serum chemistries, NR vs. control ([1]; baseline and weekly for the 2-week intervention): no statistically significant differences | less weight gained on a high-fat diet [2]: 40%

Reference: patent publication US12433908B2, “Use of nicotinamide riboside, nicotinic acid riboside, and nicotinamide mononucleotide, reduced nicotinyl compounds, and nicotinoyl compound derivatives in infant formula for healthy development” (ChromaDex, Inc., priority 2016, dated 2025)
